Experimental data taken from US20070128217A1 (priority 2003, published 2007).

Assays:
[1] = tested on: rabbit serum obtained by immunizing a rabbit with the SARS-CoV strain Frankfurt 1; type: binding; set-up: Binding of a rabbit serum to linear peptides / Binding of a rabbit serum to looped peptides / Rabbit serum linear peptides / Rabbit serum looped peptides / Binding of a rabbit serum to linear peptides of protein N of SARS-CoV Urbani (Rabbit serum linear peptides) / Binding of a rabbit serum to looped/cyclic peptides of protein N of SARS-CoV Urbani (Rabbit serum looped peptides): unit not given here
[2] = tested on: control sera (pooled serum of ten healthy LUMC hospital workers; commercial negative donor pooled serum from the Dutch bloodbank); type: binding, human; set-up: Binding of Control serum LUMC to linear peptides / Binding of Control serum Blood-bank to linear peptides / Binding of Control serum LUMC to looped peptides / Binding of Control Serum Blood-Bank to Looped peptides / Binding of Control serum LUMC to linear peptides of the protein M of SARS-CoV Urbani / Binding of Control serum Blood-bank to linear peptides of the protein M of SARS-CoV Urbani / Binding of Control serum LUMC to looped peptides of the protein M of SARS-CoV Urbani / Binding of Control Serum Blood-Bank to Looped peptides of the protein M of SARS-CoV Urbani: unit not given here
[3] = tested on: antibodies in sera from SARS patients (sera 1a, 1b, 2, 6, 37, 62, London, SARS-yellow, SARS-green); type: binding, human; set-up: Binding of serum 6 to linear peptides of protein X1 of SARS-CoV Urbani / Binding of serum 37 to linear peptides of protein X1 of SARS-CoV Urbani / Binding of serum 6 to looped/cyclic peptide (PEPSCAN-ELISA) / Binding of serum 37 to looped/cyclic peptide (PEPSCAN-ELISA) / Binding of serum 37 to looped/cyclic peptides of protein X1 of SARS-CoV Urbani / Binding of serum 6 to linear peptides of protein X2 / Binding of serum 37 to linear peptides of protein X2 / Binding of serum 37 to looped/cyclic peptides of protein X2 of SARS-CoV Urbani / Binding of serum 6 to linear peptides of protein M of SARS-CoV Urbani / Binding of serum 37 to linear peptides of protein M of SARS-CoV Urbani / Binding of serum 6 to looped/cyclic peptides of protein M of SARS-CoV Urbani / Binding of serum 37 to looped/cyclic peptides of protein M of SARS-CoV Urbani / Binding of serum 6 to linear peptides of protein X3 of SARS-CoV Urbani / Binding of serum 37 to linear peptides of protein X3 of SARS-CoV Urbani / Binding of serum 37 to looped/cyclic peptides of protein X3 of SARS-CoV Urbani / Binding of serum 6 to linear peptides of protein X4 of SARS-CoV Urbani / Binding of serum 37 to linear peptides of protein X4 of SARS-CoV Urbani / Binding of serum 37 to looped/cyclic peptides of protein X4 of SARS-CoV Urbani / Binding of serum 6 to linear peptides of protein X5 of SARS-CoV Urbani / Binding of serum 37 to linear peptides of protein X5 of SARS-CoV Urbani / Binding of serum 37 to looped/cyclic peptides of protein X5 of SARS-CoV Urbani / Binding of serum 6 to linear peptides of protein N of SARS-CoV Urbani / Binding of serum 37 to linear peptides of protein N of SARS-CoV Urbani / Binding of serum 6 to linear peptide (PEPSCAN-ELISA) / Binding of serum 1a to looped/cyclic peptides of protein N of SARS-CoV Urbani / Binding of serum 1b to looped/cyclic peptides of protein N of SARS-CoV Urbani / Binding of serum 2 to looped/cyclic peptides of protein N of SARS-CoV Urbani / Binding of serum 6 to looped/cyclic peptides of protein N of SARS-CoV Urbani / Binding of serum 37 to looped/cyclic peptides of protein N of SARS-CoV Urbani / Binding of serum 62 to looped/cyclic peptides of protein N of SARS-CoV Urbani / Binding of serum London to looped/cyclic peptides of protein N of SARS-CoV Urbani / Binding of serum SARS-green to looped/cyclic peptides of protein N of SARS-CoV Urbani: unit not given here

| Sequence | Binding of a rabbit serum to linear peptides [1] | Binding of a rabbit serum to looped peptides [1] | Binding of Control Serum Blood-Bank to Looped peptides [2] | Binding of Control serum Blood-bank to linear peptides [2] | Binding of Control serum LUMC to linear peptides [2] | Binding of Control serum LUMC to looped peptides [2] | Binding of serum 1a to linear peptides of protein X1 of SARS-CoV Urbani [3] | Binding of serum 1b to linear peptides of protein X1 of SARS-CoV Urbani [3] | Binding of serum 2 to linear peptides of protein X1 of SARS-CoV Urbani [3] | Binding of serum 6 to linear peptides of protein X1 of SARS-CoV Urbani [3] | Binding of serum 37 to linear peptides of protein X1 of SARS-CoV Urbani [3] | Binding of serum 62 to linear peptides of protein X1 of SARS-CoV Urbani [3] | Binding of serum London to linear peptides of protein X1 of SARS-CoV Urbani [3] | Binding of serum SARS-green to linear peptides of protein X1 of SARS-CoV Urbani [3] | Binding of serum SARS-yellow to linear peptides of protein X1 of SARS-CoV Urbani [3] | further results |
| --- | --- | --- | --- | --- | --- | --- | --- | --- | --- | --- | --- | --- | --- | --- | --- | --- |
| VTEGDGISTPKLKED | 0.0 | 0.4 | 0.3 | 0.2 | 0.2 | 0.3 | 0.5 | 0.4 | 0.3 | 0.3 | 0.4 | 0.3 | 0.3 | 0.1 | 0.2 | Binding of serum 1a to looped/cyclic peptides of protein X1 of SARS-CoV Urbani [3]: 0.3; Binding of serum 1b to looped/cyclic peptides of protein X1 of SARS-CoV Urbani [3]: 0.2; Binding of serum 2 to looped/cyclic peptides of protein X1 of SARS-CoV Urbani [3]: 0.1; Binding of serum 6 to looped/cyclic peptides of protein X1 of SARS-CoV Urbani [3]: 0.1; Binding of serum 37 to looped/cyclic peptides of protein X1 of SARS-CoV Urbani [3]: 0.3; Binding of serum 62 to looped/cyclic peptides of protein X1 of SARS-CoV Urbani [3]: 0.3; Binding of serum London to looped/cyclic peptides of protein X1 of SARS-CoV Urbani [3]: 0.2; Binding of serum SARS-green to looped/cyclic peptides of protein X1 of SARS-CoV Urbani [3]: 0.1; Binding of serum SARS-yellow to looped/cyclic peptides of protein X1 of SARS-CoV Urbani [3]: 0.1 |
| WLVIGVAFLAVFQSA | 0.5 | 0.5 | 0.5 | 0.6 | 0.6 | 0.5 | 0.6 | 0.5 | 0.5 | 0.4 | 0.7 | 0.6 | 0.3 | 0.3 | 0.4 | Binding of serum 1a to looped/cyclic peptide (PEPSCAN-ELISA) [3]: 0.5; Binding of serum 1b to looped/cyclic peptide (PEPSCAN-ELISA) [3]: 0.3; Binding of serum 2 to looped/cyclic peptide (PEPSCAN-ELISA) [3]: 0.4; Binding of serum 6 to looped/cyclic peptide (PEPSCAN-ELISA) [3]: 0.2; Binding of serum 37 to looped/cyclic peptide (PEPSCAN-ELISA) [3]: 0.5; Binding of serum 62 to looped/cyclic peptide (PEPSCAN-ELISA) [3]: 0.5; Binding of serum London to looped/cyclic peptide (PEPSCAN-ELISA) [3]: 0.2; Binding of serum SARS-green to looped/cyclic peptide (PEPSCAN-ELISA) [3]: 0.2; Binding of serum SARS-yellow to looped/cyclic peptide (PEPSCAN-ELISA) [3]: 0.5 |
